Several values for one entry are separate records, joined by “and”; a condition that tells them apart may be missing. Equal entries are not always repeated.
What was measured:
A549cisR cells [1] = conditions: read-out: cisplatin IC50; A549cisR cells generated by continuous exposure to cisplatin; cited from earlier work
Protocol: (§1) The RNAi library contains 328 shRNA clones, and each gene was targeted by 2 ~ 8 clones (Fig. 1a). Eleven genes, including DLAT, were selected as unexplored lead hits with cisplatin-sensitizing potential and were further evaluated in A549^cisR, H1299, and KB-3-1^cisR, and two acetyltrans ... || HCT116 and HT-29 colon cancer cell lines, MDA-MB231, HeLa, 293T, and KB-3-1^cisR cells were cultured in Dulbecco Modified Eagle Medium (DMEM). The PCI-37B and FaDu cell lines was maintained in DMEM/Ham’s F-12 50/50 mix medium. […] All media contained 100 U/ml penicillin and 100 μg/ml of streptomycin, supplemented with 10% fetal bovine serum. The identity of KB-3-1 and PCI-37B cells were described previously[45],[58],[59]. All other cell lines were from the American Type Culture Collection (ATCC). KB-3-1^cisR and A549^cisR cells w ...

KB-3-1cisR cells = conditions: read-out: cisplatin IC50; KB-3-1cisR cells generated by continuous exposure to cisplatin; cited from earlier work
Protocol: as §1

A549cisR cells [2] = test: Apoptotic cell death (annexin V/PI staining); assay type: cell-based, human; conditions: cisplatin 2 μg/ml, 48 h, n=1-4: biological replicates, listed as cis
RNA synthesis = test: Global RNA synthesis (5-EU labeling); assay type: cell-based, human; parameters: unit not given here
Protocol: (§2) Cellular metabolic states were examined through various assays. To gauge the levels of total intracellular or mitochondrial reactive oxygen species (ROS), cells were stained with CM-H2DCFDA or mitoSOX, respectively. Intracellular H2O2, NADPH, acetyl-CoA, and GSH/GSSG ratios were quantified using commercial assay kits as listed in the Reagents. Intracellular ATP levels were determined utilizing the ATP bioluminescent somatic cell assay and normalized to the total protein concentrations. The de novo synthesized RNA and proteins were assessed in cancer cells using commercial assays following the manufacturer’s protocols. In brief, O-propargyl-puromycin or uridine analog, 5-EU, was applied to stop translation or modify RNA. Polypeptides or modified RNA were measured using fluorescent azide with Ex/Em at 494/521 nm. PDC activity was determined by measuring the reduction of NAD+ to NADH during the conversion of pyruvate into acetyl-CoA.

HT-29 cells = test: Apoptotic cell death (annexin V/PI staining); assay type: cell-based, human; conditions: Supple Fig 6B
Protocol: (§3) Cell viability was determined using the CellTiter-Glo Luminescent Cell Viability Assay. […] Subsequently, the cells were cultured in complete medium for an additional 10 days, and the resulting colonies were visualized by staining with crystal violet and quantified using ImageJ software. For cell cycle analysis, cells fixed with 70% ethanol were stained with RNase A (100 µg/mL) and propidium iodide (50 μg/ml) for 30 min at 37 °C, and DNA content distribution was measured using flow cytometry (BD Symphony A3) and analyzed with FlowJo software (v10.9). Apoptotic cell death was assessed via FITC-conjugated annexin V and propidium iodide staining.
(§4) Colon cancer cell lines, HCT116 (a) and HT-29 (b), were stably transduced with DLAT shRNA harboring lentivirus, followed by annexin V staining and CellTiter Glo Viability assay. Error bars represent SD and are from 3 independent biological replicates. P values were obtained by one-way ANOVA.
(§5) (1 picture or pasted object on this page, not shown here)

HCT116 cells = test: Apoptotic cell death (annexin V/PI staining); assay type: cell-based, human; conditions: Supple Fig 6A
Protocol: as §3, §4, §5

protein synthesis = test: Global protein synthesis (O-propargyl-puromycin); assay type: cell-based, human
Protocol: as §2

[3] = A549cisR, pLKO.1, n=1 (Figure 3B)
[4] = A549cisR, pLKO.1, n=2 (Figure 3B)
[5] = A549cisR, pLKO.1, n=3 (Figure 3B)
[6] = A549cisR, shDLAT, n=1 (Figure 3B)
[7] = A549cisR, shDLAT, n=2 (Figure 3B)
[8] = A549cisR, shDLAT, n=3 (Figure 3B)
[9] = KB-3-1cisR, pLKO.1, n=1 (Figure 3B)
[10] = KB-3-1cisR, pLKO.1, n=2 (Figure 3B)
[11] = KB-3-1cisR, pLKO.1, n=3 (Figure 3B)
[12] = KB-3-1cisR, shDLAT, n=1 (Figure 3B)
[13] = KB-3-1cisR, shDLAT, n=2 (Figure 3B)
[14] = KB-3-1cisR, shDLAT, n=3 (Figure 3B)

N.N.[Cl][Pt][Cl] [cisplatin]
IC50 (A549cisR cells [1]): 17.6 µM
IC50 (KB-3-1cisR cells): 60.5 µM
Apoptotic death (A549cisR cells [2]; A549cisR pLKO.1+pLHCX): 7.05 and 8.53 and 8.99 and 9.51
Apoptotic death (A549cisR cells [2]; A549cisR shDLAT+DLAT(WT) rescue): 7.31 and 8.35 and 8.93 and 10.11
Global RNA synthase (RNA synthesis; [3]): 35.2
Global RNA synthase (RNA synthesis; [4]): 34.2
Global RNA synthase (RNA synthesis; [5]): 34.8
Global RNA synthase (RNA synthesis; [6]): 36.6
Global RNA synthase (RNA synthesis; [7]): 34
Global RNA synthase (RNA synthesis; [8]): 33
Global RNA synthase (RNA synthesis; [9]): 34.8
Global RNA synthase (RNA synthesis; [10]): 33.4
Global RNA synthase (RNA synthesis; [11]): 32.4
Global RNA synthase (RNA synthesis; [12]): 33.6
Global RNA synthase (RNA synthesis; [13]): 31.4
Global RNA synthase (RNA synthesis; [14]): 31.6
Apoptotic death (HT-29 cells; HT-29, pLKO.1 control cells + cis, replicate n=2): 20
Apoptotic death (HT-29 cells; HT-29, pLKO.1 control cells + cis, replicate n=3): 20.2
Apoptotic death (HT-29 cells; HT-29, shDLAT cells + cis, replicate n=1): 20.2
Apoptotic death (HT-29 cells; HT-29, shDLAT cells + cis, replicate n=2): 22.2
Apoptotic death (HT-29 cells; HT-29, shDLAT cells + cis, replicate n=3): 22.9
Apoptotic death (HCT116 cells; HCT116, pLKO.1 control cells + cis, replicate n=2): 17.9
Apoptotic death (HCT116 cells; HCT116, shDLAT cells + cis, replicate n=2): 15.5
Apoptotic death (HCT116 cells; HCT116, shDLAT cells + cis, replicate n=3): 18.3
Global protein synthase (protein synthesis; [3]): 73.5
Global protein synthase (protein synthesis; [4]): 70.6
Global protein synthase (protein synthesis; [5]): 67.1
Global protein synthase (protein synthesis; [6]): 76.2
Global protein synthase (protein synthesis; [7]): 75.5
Global protein synthase (protein synthesis; [8]): 73.3
Global protein synthase (protein synthesis; [9]): 101
Global protein synthase (protein synthesis; [10]): 98.7
Global protein synthase (protein synthesis; [11]): 101
Global protein synthase (protein synthesis; [12]): 92.8
Global protein synthase (protein synthesis; [13]): 100
Global protein synthase (protein synthesis; [14]): 92.4

Source: PMC12508156, “Non-canonical dihydrolipoyl transacetylase promotes chemotherapy resistance via mitochondrial tetrahydrofolate signaling” (Nature Communications, 2025)
